Target: T1, DJ-1 (Homo sapiens, UniProt Q99497, C106S)
T1 construct: gene PARK7; full-length, N-terminal His-tag removed by TEV protease; Ni-NTA purified recombinant; ~20 kDa
T1 sequence (Q99497 1-189 C106S): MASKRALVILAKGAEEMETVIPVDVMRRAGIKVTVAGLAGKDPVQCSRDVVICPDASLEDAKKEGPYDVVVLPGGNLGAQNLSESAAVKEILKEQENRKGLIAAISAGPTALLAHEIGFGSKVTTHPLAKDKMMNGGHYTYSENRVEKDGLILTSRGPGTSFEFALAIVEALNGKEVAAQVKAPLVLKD
Experiment: end-point NAC assay of remaining cPGA; 1H-NMR
Format: biochemical
Conditions: 500 µM cPGA, 2 min, 50 mM sodium phosphate pH 7.0, 25 °C; catalytic cysteine mutant

`O=C1OP(=O)(O)OC[C@H]1O` [cPGA] was tested. Which “end-point NAC assay of remaining cPGA; 1H-NMR” value did it give?
Its value is “Mutation of the catalytic cysteine (C106S) in DJ-1 completely abolished this activity”.
